This assay deals with BDF1 mice, P388 leukemia ip, median survival T/C. In words: NCI In Vivo Anticancer Drug Screen. Data for tumor model P388 Leukemia (intraperitoneal) in B6D2F1 (BDF1) mice. The settings on record: endpoint: median survival time, higher = longer survival. Put shortly:
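T/C = treated-group survival ÷ vehicle-control survival; tumour transplanted into mice before dosing.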

[1] abbreviates: dose: 100.0 mg/kg/injection, schedule: Q04DX003 (ip), vehicle: saline.
[2] abbreviates: dose: 50.0 mg/kg/injection, schedule: Q01DX009 (ip), vehicle: saline with Tween-80.
Where [3] appears, read: dose: 100.0 mg/kg/injection, schedule: Q01DX009 (ip), vehicle: saline with Tween-80.
[4] abbreviates: dose: 200.0 mg/kg/injection, schedule: Q01DX009 (ip), vehicle: saline with Tween-80.
[5] abbreviates: dose: 200.0 mg/kg/injection, schedule: Q04DX003 (ip), vehicle: saline with Tween-80.
Setting [6] is: dose: 400.0 mg/kg/injection, schedule: Q04DX003 (ip), vehicle: saline with Tween-80.
The mark [7] stands for this setting: dose: 100.0 mg/kg/injection, schedule: Q04DX003 (ip), vehicle: saline with Tween-80.
The mark [8] stands for this setting: dose: 50.0 mg/kg/injection, schedule: Q04DX003 (ip), vehicle: Klucel (hydroxypropylcellulose) (HPC).
[9] abbreviates: dose: 100.0 mg/kg/injection, schedule: Q01DX009 (ip), vehicle: Klucel (hydroxypropylcellulose) (HPC).
Setting [10] is: dose: 100.0 mg/kg/injection, schedule: Q04DX003 (ip), vehicle: Klucel (hydroxypropylcellulose) (HPC).
Where [11] appears, read: dose: 200.0 mg/kg/injection, schedule: Q01DX009 (ip), vehicle: Klucel (hydroxypropylcellulose) (HPC).
[12] abbreviates: dose: 200.0 mg/kg/injection, schedule: Q04DX003 (ip), vehicle: Klucel (hydroxypropylcellulose) (HPC).
Where [13] appears, read: dose: 400.0 mg/kg/injection, schedule: Q01DX009 (ip), vehicle: saline with Tween-80.

Values joined by “and” are separate entries in the source; they are usually repeats but may differ in a detail not shown here. Identical values can stand only once. Inconclusive results and toxic doses are left out. Non-standard residues stand in square brackets, D forms with d. Residues, ends and D or L forms follow the SMILES beside them. ξ: configuration not given here. ξF = NC(Cc1ccccc1)C(=O)O

As for `CN1CCC(=C(C#N)C#N)CC1`, the T/C runs as follows: (dose: 25.0 mg/kg/injection, schedule: Q04DX003 (ip), vehicle: saline) 95 % of control; (dose: 50.0 mg/kg/injection, schedule: Q04DX003 (ip), vehicle: saline) 100 % of control; under setting [1], 100 % of control.
As for `CC(=O)c1cc(C)ccc1Sc1ccc(C)cc1`, the T/C under setting [2] is 104 % of control, the T/C under setting [3] was 101 % of control and the T/C under setting [4] was 95 % of control.
With `CC(C)=C(B1OC(C)(C)C(C)(C)O1)B1OC(C)(C)C(C)(C)O1`, the T/C is 110 % of control (dose: 100.0 mg/kg/injection, schedule: Q01DX001 (ip), vehicle: saline with Tween-80); 105 % of control (dose: 200.0 mg/kg/injection, schedule: Q01DX001 (ip), vehicle: saline with Tween-80); 105 % of control (dose: 400.0 mg/kg/injection, schedule: Q01DX001 (ip), vehicle: saline with Tween-80).
`OC(c1cc(C23CC4CC(CC(C4)C2)C3)nc2c(Cl)cc(Cl)cc12)C1CCCCN1` (centres undefined): the T/C is 88 % of control (dose: 12.5 mg/kg/injection, schedule: Q01DX009 (ip), vehicle: saline with Tween-80); 90 % of control (dose: 25.0 mg/kg/injection, schedule: Q01DX009 (ip), vehicle: saline with Tween-80); 89 % of control and 97 % of control under setting [2].
For `Clc1ccc2c(c1)C(Br)c1cc(Cl)cc(Cl)c1-2` (centres undefined), the T/C was 108 % of control under setting [3], 87 % of control under setting [4], 87 % of control under setting [5] and 87 % of control under setting [6].
As to `CC(=O)Nc1cc2c(cc1[N+](=O)[O-])-c1ccc([N+](=O)[O-])cc1C2`, the T/C is 89 % of control (dose: 6.25 mg/kg/injection, schedule: Q01DX009 (ip), vehicle: Klucel (hydroxypropylcellulose) (HPC)); 97 % of control (dose: 12.5 mg/kg/injection, schedule: Q01DX009 (ip), vehicle: Klucel (hydroxypropylcellulose) (HPC)); 89 % of control and 91 % of control (dose: 25.0 mg/kg/injection, schedule: Q01DX009 (ip), vehicle: Klucel (hydroxypropylcellulose) (HPC)).
Take `NC(Cc1ccccc1)C(=O)NCC(=O)NCC(=O)O` (stereo not drawn) (H-[ξF]-Gly-Gly-OH): the T/C is 95 % of control under setting [7], 104 % of control under setting [5] and 109 % of control under setting [6].
Regarding `Cc1noc(C)c1CC1(Cc2c(C)noc2C)C(=O)CCC2(C)CCCC=C21` (centres undefined), the T/C was 91 % of control under setting [8]; 104 % of control under setting [9]; 104 % of control under setting [10]; 95 % of control under setting [11]; 91 % of control under setting [12].
Take `O=C(CNC(=O)c1ccc(C(=O)NCC(=O)Nc2ccc(C3=NCCCN3)cc2)cc1)Nc1ccc(C2=NCCCN2)cc1`: the T/C was 100 % of control (dose: 11.0 mg/kg/injection, schedule: Q04DX003 (ip), vehicle: saline); 113 % of control (dose: 16.0 mg/kg/injection, schedule: Q04DX003 (ip), vehicle: saline); 96 % of control (dose: 25.0 mg/kg/injection, schedule: Q01DX001 (ip), vehicle: Klucel (hydroxypropylcellulose) (HPC)); 103 % of control (dose: 50.0 mg/kg/injection, schedule: Q01DX001 (ip), vehicle: Klucel (hydroxypropylcellulose) (HPC)); 168 % of control (dose: 66.0 mg/kg/injection, schedule: Q04DX003 (ip), vehicle: saline); 107 % of control (dose: 75.0 mg/kg/injection, schedule: Q01DX001 (ip), vehicle: Klucel (hydroxypropylcellulose) (HPC)). The T/C by setting is: (dose: 100.0 mg/kg/injection, schedule: Q01DX001 (ip), vehicle: Klucel (hydroxypropylcellulose) (HPC)) 115 % of control; under setting [1], 181 % of control (2×) and 195 % of control; (dose: 150.0 mg/kg/injection, schedule: Q04DX003 (ip), vehicle: saline) 272 % of control and 186 % of control; (dose: 400.0 mg/kg/injection, schedule: Q01DX001 (ip), vehicle: Klucel (hydroxypropylcellulose) (HPC)) 168 % of control.
On to `O=C(NC12CC3CC(CC(C3)C1)C2)Oc1ccccc1`, for which the T/C reads like this: under setting [2], 102 % of control; under setting [3], 102 % of control; under setting [4], 93 % of control.
For the compound `CCCCNC(=O)OC`, the T/C reads like this: (dose: 50.0 mg/kg/injection, schedule: Q01DX009 (ip), vehicle: Klucel (hydroxypropylcellulose) (HPC)) 100 % of control; under setting [8], 100 % of control; under setting [9], 100 % of control; under setting [10], 95 % of control; under setting [12], 115 % of control.
In the case of `CCCCC(NC(C)=O)C(=O)O` (centres undefined), the T/C under setting [3] was 119 % of control and the T/C under setting [13] is 113 % of control.
For `CCCC1CCC(=C2C(=O)CCC2=O)O1` (centres undefined), the T/C (dose: 3.13 mg/kg/injection, schedule: Q01DX009 (ip), vehicle: saline) was 119 % of control; the T/C (dose: 6.25 mg/kg/injection, schedule: Q01DX009 (ip), vehicle: saline) is 119 % of control; the T/C (dose: 12.5 mg/kg/injection, schedule: Q01DX009 (ip), vehicle: saline) was 119 % of control; the T/C (dose: 25.0 mg/kg/injection, schedule: Q01DX009 (ip), vehicle: saline) was 119 % of control; the T/C (dose: 25.0 mg/kg/injection, schedule: Q04DX002 (ip), vehicle: saline with Tween-80) was 113 % of control; the T/C (dose: 25.0 mg/kg/injection, schedule: Q04DX002 (ip), vehicle: saline) is 107 % of control. Further, the T/C reads like this: (dose: 50.0 mg/kg/injection, schedule: Q04DX002 (ip), vehicle: saline with Tween-80) 103 % of control; (dose: 50.0 mg/kg/injection, schedule: Q04DX002 (ip), vehicle: saline) 100 % of control; (dose: 100.0 mg/kg/injection, schedule: Q04DX002 (ip), vehicle: saline with Tween-80) 120 % of control; (dose: 200.0 mg/kg/injection, schedule: Q04DX002 (ip), vehicle: saline) 105 % of control.
Take `O=c1cc(Cl)[nH]c(=O)[nH]1`: the T/C is 97 % of control (dose: 50.0 mg/kg/injection, schedule: Q04DX003 (ip), vehicle: saline with Tween-80); 114 % of control under setting [7]; 97 % of control under setting [5]; 97 % of control under setting [6].
In the case of `CC(=O)Oc1cc([N+](=O)[O-])ccc1C(=O)O`, the T/C reads like this: under setting [7], 104 % of control; under setting [5], 108 % of control; under setting [6], 100 % of control.
Take `Nc1nc(SCCc2ccccc2)c2[nH]cnc2n1`: the T/C is 109 % of control under setting [3]; 104 % of control under setting [7]; 100 % of control under setting [4]; 100 % of control under setting [5]; 90 % of control under setting [13]; 104 % of control under setting [6].
For `O=c1ccc2nc3cc(Cl)ccc3sc-2c1`, the T/C is 109 % of control under setting [9]; 100 % of control under setting [10]; 95 % of control and 105 % of control under setting [11]; 90 % of control under setting [12]; 100 % of control (dose: 400.0 mg/kg/injection, schedule: Q01DX009 (ip), vehicle: Klucel (hydroxypropylcellulose) (HPC)); 90 % of control (dose: 400.0 mg/kg/injection, schedule: Q04DX003 (ip), vehicle: Klucel (hydroxypropylcellulose) (HPC)).
With `COc1ccc(C2C(C#N)=C(N)NC(=O)C2C(N)=O)cc1` (centres undefined), the T/C by setting is: (dose: 50.0 mg/kg/injection, schedule: Q01DX005 (ip), vehicle: saline with Tween-80) 92 % of control; (dose: 100.0 mg/kg/injection, schedule: Q01DX005 (ip), vehicle: saline with Tween-80) 89 % of control; (dose: 200.0 mg/kg/injection, schedule: Q01DX005 (ip), vehicle: saline with Tween-80) 92 % of control.
